These results are taken from patent publication US20090304797A1, “Process for the Preparation of Micronized Valsartan” (priority 2006, published 2009).

Each structure is given as a SMILES string.

A short description of the first data set: Particle size distribution. It is filed as physicochemical. As to conditions: crystallized using ethyl acetate as taught in U.S. Pat. No. 5,399,578, after passing through 30 mesh sieve.
Turning to `CCCCC(=O)N(Cc1ccc(-c2ccccc2-c2nnn[nH]2)cc1)[C@H](C(=O)O)C(C)C` [Valsartan, N-(1-Oxopentyl)-N-[[2′-(1H-tetrazol-5-yl)[1,1′-biphenyl]-4-yl]methyl]-L-valine], the “Particle size distribution d10” value worked out at 5.039 μ, the “Particle size distribution d50” value came out at 77.29 μ and the “Particle size distribution d90” value turned out to be 383.55 μ.

Staying with this data set, now noted: solid obtained by the process of the example.
With `CCCCC(=O)N(Cc1ccc(-c2ccccc2-c2nnn[nH]2)cc1)[C@H](C(=O)O)C(C)C` [Example 1, Valsartan], the “Particle size distribution d10” value is given as 1.906 μ, the “Particle size distribution d50” value was 4.134 μ and the “Particle size distribution d90” value is on record as 7.554 μ.

`CCCCC(=O)N(Cc1ccc(-c2ccccc2-c2nnn[nH]2)cc1)[C@H](C(=O)O)C(C)C` [Example 2, Valsartan]: the “Particle size distribution d10” value is recorded as 1.686 μ, the “Particle size distribution d50” value is reported as 4.420 μ and the “Particle size distribution d90” value was determined as 8.684 μ.

Consider `CCCCC(=O)N(Cc1ccc(-c2ccccc2-c2nnn[nH]2)cc1)[C@H](C(=O)O)C(C)C` [Example 3, Valsartan], for which the “Particle size distribution d10” value was determined as 1.5421 μ, the “Particle size distribution d50” value is on record as 3.850 μ and the “Particle size distribution d90” value is recorded as 7.869 μ.

With `CCCCC(=O)N(Cc1ccc(-c2ccccc2-c2nnn[nH]2)cc1)[C@H](C(=O)O)C(C)C` [Example 4, Valsartan], the “Particle size distribution d10” value turned out to be 2.011 μ, the “Particle size distribution d50” value is 4.636 μ and the “Particle size distribution d90” value came out at 8.611 μ.

For `CCCCC(=O)N(Cc1ccc(-c2ccccc2-c2nnn[nH]2)cc1)[C@H](C(=O)O)C(C)C` [Example 5 A, Valsartan], the “Particle size distribution d10” value is reported as 1.869 μ, the “Particle size distribution d50” value amounted to 18.401 μ and the “Particle size distribution d90” value was determined as 202 μ.

On to `CCCCC(=O)N(Cc1ccc(-c2ccccc2-c2nnn[nH]2)cc1)[C@H](C(=O)O)C(C)C` [Example 5 B, Valsartan], for which the “Particle size distribution d10” value is recorded as 0.71 μ, the “Particle size distribution d50” value is 2.687 μ and the “Particle size distribution d90” value is reported as 8.42 μ.
